From patent US20060069132A1, “Azolecarboxamide herbicides” (priority 2004, published 2006)
Where two headings read alike, the source gives them in different places.

Columns and labels:
[1] = system: velvetleaf; test: Test B pre-/postemergence herbicide test; format: in vivo, Abutilon theophrasti; conditions: Abutilon theophrasti, 336 h; for pest or weed control at 125 g/ha: 125 g ai/ha; for pest or weed control at 500 g/ha: 500 g ai/ha
How it was run: (§1)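 Herbicidal effect was judged by eye on a 0–100 scale after plants stood 13 to 15 days in the greenhouse following pre- or postemergence treatment with surfactant-containing formulations.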

[2] = system: morningglory; test: Test C pre-/postemergence herbicide test; format: in vivo, Ipomoea coccinea; conditions: for Plant response rating (0 = no effect, 100 = complete control), Morningglory: 62 g ai/ha, preemergence; for pest or weed control at 250 g/ha: 250 g ai/ha, scale 0 to 100 (0 no effect, 100 complete control); for Morningglory plant response rating: Preemergence, 500 g ai/ha, scale 0 to 100, 0 no effect, 100 complete control
How it was run: (§2)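 Emerged plants at the 1- to 4-leaf stage (2–18 cm), or freshly planted seeds, received test chemicals in a non-phytotoxic solvent mixture with surfactant. Response was visually scored against controls after 12 to 14 days in the greenhouse, on a 0 (no effect) to 100 (complete control) scale.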

[3] = system: velvetleaf; test: Test A pre-/postemergence herbicide test; format: in vivo, Abutilon theophrasti; conditions: Abutilon theophrasti, 240 h; for pest or weed control at 500 g/ha: 500 g ai/ha; for pest or weed control at 2000 g/ha: 2000 g ai/ha
How it was run: (§3)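 Both application timings were run together: directed soil spray over freshly planted seeds in sandy loam, and runoff spray onto 2–10 cm seedlings. Evaluation after ~10 days in greenhouse used a 0–100 visual scale versus untreated controls.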

[4] = system: rice; test: Test B pre-/postemergence herbicide test; format: in vivo, Oryza sativa; conditions: for Rice plant response rating: Preemergence, 500 g ai/ha, scale 0 to 100
How it was run: as §1

[5] = system: bermudagrass; test: Test C pre-/postemergence herbicide test; format: in vivo, Cynodon dactylon; conditions: for Plant response rating (0 = no effect, 100 = complete control), Bermudagrass: 62 g ai/ha, preemergence; for pest or weed control at 125 g/ha / pest or weed control at 250 g/ha / pest or weed control at 500 g/ha: Cynodon dactylon, pre-emergence, 312 h; for pest or weed control at 125 g/ha: 125 g ai/ha; for pest or weed control at 125 g/ha / pest or weed control at 250 g/ha: read-out: Plant response rating, Bermudagrass; for pest or weed control at 250 g/ha: 250 g ai/ha, scale 0 to 100 (0 no effect, 100 complete control); for pest or weed control at 500 g/ha: Preemergence, 500 g ai/ha, scale 0 to 100, 0 no effect, 100 complete control, read-out: Bermudagrass plant response rating
How it was run: as §2

[6] = system: woolly cupgrass; test: Test C pre-/postemergence herbicide test; format: in vivo, Eriochloa villosa; conditions: for Plant response rating (0 = no effect, 100 = complete control), Cupgrass, Woolly: 62 g ai/ha, preemergence; for pest or weed control at 125 g/ha / pest or weed control at 250 g/ha: Eriochloa villosa, pre-emergence, 312 h, read-out: Plant response rating, Cupgrass, Woolly; for pest or weed control at 125 g/ha: 125 g ai/ha; for pest or weed control at 250 g/ha: 250 g ai/ha, scale 0 to 100 (0 no effect, 100 complete control); for Cupgrass, Woolly plant response rating: Preemergence, 500 g ai/ha, scale 0 to 100, 0 no effect, 100 complete control
How it was run: as §2

[7] = system: goosegrass; test: Test C pre-/postemergence herbicide test; format: in vivo, Eleusine indica; conditions: for Plant response rating (0 = no effect, 100 = complete control), Goosegrass: 62 g ai/ha, preemergence; for pest or weed control at 125 g/ha / pest or weed control at 250 g/ha: Eleusine indica, pre-emergence, 312 h, read-out: Plant response rating, Goosegrass; for pest or weed control at 125 g/ha: 125 g ai/ha; for pest or weed control at 250 g/ha: 250 g ai/ha, scale 0 to 100 (0 no effect, 100 complete control); for Goosegrass plant response rating: Preemergence, 500 g ai/ha, scale 0 to 100, 0 no effect, 100 complete control
How it was run: as §2

[8] = system: soybean; test: Test C pre-/postemergence herbicide test; format: in vivo, Glycine max; conditions: for Plant response rating (0 = no effect, 100 = complete control), Soybean: 62 g ai/ha, preemergence; for plant injury at 250 g/ha: 250 g ai/ha, scale 0 to 100 (0 no effect, 100 complete control); for Soybean plant response rating: Preemergence, 500 g ai/ha, scale 0 to 100, 0 no effect, 100 complete control
How it was run: as §2

[9] = system: morningglory; test: Test A pre-/postemergence herbicide test; format: in vivo, Ipomoea spp.; conditions: Ipomoea, 240 h; for pest or weed control at 500 g/ha: 500 g ai/ha; for pest or weed control at 2000 g/ha: 2000 g ai/ha
How it was run: as §3

[10] = post-emergence, Postemergence, visual rating after 13 to 15 days, scale 0 (no effect) to 100 (complete control), read-out: Plant response rating, Velvetleaf
[11] = pre-emergence, Preemergence, scale 0 to 100, read-out: Velvetleaf plant response rating
[12] = Ipomoea, pre-emergence, visual, 12 to 14 days, read-out: Plant response rating, Morningglory
[13] = post-emergence, Postemergence, 0 to 100 scale, 0 no effect, 100 complete control, read-out: Plant response rating, Velvetleaf
[14] = pre-emergence, Preemergence, visual rating, 0 to 100 scale (0 no effect, 100 complete control), read-out: Velvetleaf plant response rating
[15] = pre-emergence, Preemergence, 0 to 100 scale, 0 no effect, 100 complete control, read-out: Velvetleaf plant response rating
[16] = Glycine max, pre-emergence, visual, 12 to 14 days, read-out: Plant response rating, Soybean
[17] = post-emergence, Postemergence, 0 to 100 scale, 0 no effect, 100 complete control, read-out: Plant response rating, Morningglory
[18] = pre-emergence, Preemergence, visual rating, 0 to 100 scale (0 no effect, 100 complete control), read-out: Morningglory plant response rating
[19] = pre-emergence, Preemergence, 0 to 100 scale, 0 no effect, 100 complete control, read-out: Morningglory plant response rating
[20] = scale 0 (no effect) to 100 (complete control), visual, 12 to 14 days

| SMILES | pest or weed control at 500 g/ha [1, 10] | pest or weed control at 500 g/ha [1, 11] | Plant response rating (0 = no effect, 100 = complete control), Morningglory [2] | pest or weed control at 250 g/ha [2, 12] | Morningglory plant response rating [2] | pest or weed control at 2000 g/ha [3, 13] | pest or weed control at 500 g/ha [3, 14] | pest or weed control at 2000 g/ha [3, 15] | Rice plant response rating [4] | Plant response rating (0 = no effect, 100 = complete control), Bermudagrass [5] | pest or weed control at 250 g/ha ([5]; visual, 12 to 14 days) | pest or weed control at 500 g/ha [5] | Plant response rating (0 = no effect, 100 = complete control), Cupgrass, Woolly [6] | pest or weed control at 250 g/ha ([6]; visual, 12 to 14 days) | Cupgrass, Woolly plant response rating [6] | Plant response rating (0 = no effect, 100 = complete control), Goosegrass [7] | pest or weed control at 250 g/ha ([7]; visual, 12 to 14 days) | Goosegrass plant response rating [7] | Plant response rating (0 = no effect, 100 = complete control), Soybean [8] | plant injury at 250 g/ha [8, 16] | also measured |
| --- | --- | --- | --- | --- | --- | --- | --- | --- | --- | --- | --- | --- | --- | --- | --- | --- | --- | --- | --- | --- | --- |
| CCNC(=O)c1ccc(F)c(NC(=O)c2cc(C(C)(C)C)nn2CC)c1 [Compound 2, 3-(1,1-dimethylethyl)-1-ethyl-N-[5-[(ethylamino)carbonyl]-2-fluorophenyl]-1H-pyrazole-5-carboxamide] | 50% | 100% | 5 | 45% | 100 | 75% | 100% | 100% | 90 | 85 | 95% | 95% | 40 | 60% | 80 | 90 | 95% | 100 | 30 | 100% | pest or weed control at 125 g/ha ([1]; post-emergence, Postemergence, scale 0 (no effect) to 100 (complete control), read-out: Velvetleaf plant response rating): 20%; pest or weed control at 500 g/ha [3, 13]: 40%; pest or weed control at 125 g/ha ([5]; scale 0-100): 90%; pest or weed control at 125 g/ha ([6]; scale 0-100): 60%; pest or weed control at 125 g/ha ([7]; scale 0-100): 95%; Soybean plant response rating [8]: 100; pest or weed control at 500 g/ha [9, 17]: 45%; pest or weed control at 2000 g/ha [9, 17]: 80%; pest or weed control at 500 g/ha [9, 18]: 80%; pest or weed control at 2000 g/ha [9, 19]: 100% |
| CCn1nc(C(C)(C)C)cc1C(=O)Nc1cccc2c1CN(C)C2=O [Compound 55, N-(2,3-dihydro-2-methyl-1-oxo-1H-isoindol-4-yl)-3-(1,1-dimethylethyl)-1-ethyl-1H-pyrazole-5-carboxamide] | 40% | 30% | 0 | 20% | 75 | 40% | 20% | 70% | 70 | 60 | 100% | 100% | 0 | 55% | 65 | 0 | 75% | 95 | 0 | 0% | pest or weed control at 125 g/ha ([1]; post-emergence, postemergence, visual rating, scale 0 (no effect) to 100 (complete control), read-out: Velvetleaf plant response rating): 20%; pest or weed control at 125 g/ha ([1]; pre-emergence, preemergence, 0 to 100 scale, 0 is no effect, 100 is complete control, read-out: Plant response rating, Velvetleaf): 0%; pest or weed control at 125 g/ha ([2]; Ipomoea, pre-emergence, 125 g ai/ha, scale 0 (no effect) to 100 (complete control), visual, 12 to 14 days, read-out: Plant response rating, Morningglory): 0%; plant injury at 125 g/ha ([4]; Oryza sativa, pre-emergence, 336 h, preemergence, 125 g ai/ha, 0 to 100 scale, 0 is no effect, 100 is complete control, read-out: Plant response rating, Rice): 50%; pest or weed control at 125 g/ha [5, 20]: 100%; pest or weed control at 125 g/ha [6, 20]: 25%; pest or weed control at 125 g/ha [7, 20]: 50%; plant injury at 125 g/ha ([8]; Glycine max, pre-emergence, 125 g ai/ha, scale 0 (no effect) to 100 (complete control), visual, 12 to 14 days, read-out: Plant response rating, Soybean): 0%; Soybean plant response rating [8]: 20; pest or weed control at 500 g/ha [9, 17]: 20%; pest or weed control at 2000 g/ha [9, 17]: 25%; pest or weed control at 500 g/ha [9, 18]: 5%; pest or weed control at 2000 g/ha [9, 19]: 20% |
